The subject of series [1] is Vero cells. The following applies: African green monkey, 72 h.
Series [2] relates to Mtb H37Rv. Put plainly: TB MIC - ITR (UIC), Institute for Tuberculosis Research. Format: cell-based, Mycobacterium tuberculosis. Conditions: for MIC: Mycobacterium tuberculosis, H37RV, Tables 1-4, read-out: TB MIC - ITR; for TB MIC - UIC: Tables P1, P2.
Series [3] concerns Mtb H37Rv. Put plainly: TB MIC - SRI, resazurin-based microplate assay. Format: cell-based, Mycobacterium tuberculosis. The following applies: for MIC: Mycobacterium tuberculosis, H37RV. On the technique in general: Resazurin is reduced to fluorescent resorufin, in cell work by metabolically active cells.
The test system of series [4] is NRP Mtb H37Rv cells. Put plainly: Low-oxygen recovery assay (LORA) MIC. It is filed as cell-based, Mycobacterium tuberculosis. The following applies: for MIC: Mycobacterium tuberculosis, H37RV, read-out: LORA MIC - ITR; for LORA MIC: Tables P1, P2, non-replicating M. tuberculosis.
Setting [5] is: Tables 1-4 and text, read-out: TB MIC - SRI.
[6] abbreviates: Tables P1-P3, read-out: TB MIC - SRI.

Values after ≈ are worked out from the molar mass of the structure shown. Like-named read-outs stand apart in the source and are kept apart here. Some results are limits rather than exact numbers.

Consider `CS(=O)(=O)N1CCN(c2n[n+]([O-])c3cc4c(cc3[n+]2[O-])CCC4)CC1` [Compound 20x, 3-(4-(methylsulfonyl)piperazin-1-yl)-7,8-dihydro-6H-indeno[5,6-e][1,2,4]triazine 1,4-dioxide], for which, in series [1], the “Vero Tox CC50” value is over 50 mg/L. For the same compound, the MIC is 13 mg/L (≈ 35.6 µM) in series [2]; 2.5 to 5 mg/L (≈ 6.84 to 13.7 µM) in series [3] (setting [5]); 15 mg/L (≈ 41 µM) in series [4] (NRP Mtb, Tables 1-4 and text). Besides, in series [3] (Tables 1-4 and text), the “TB MIC - SRI” value came out at 5.0 mg/L.

As for `[O-][n+]1nc(NC2CCCCC2)[n+]([O-])c2ccc(Cl)cc21` [SRI-012303], the “VERO Tox-SRI” value in series [1] is on record as 2.62. The compound also had a TB MIC - UIC in series [2] of 0.94 mg/L. Moreover, in series [3] (setting [6]), the MIC was 0.625 mg/L (≈ 2.12 µM). This compound also showed an LORA MIC in series [4] of 0.63 mg/L.

For the compound `[O-][n+]1nc(N[C@@H]2C[C@H]3CC[C@@H]2C3)[n+]([O-])c2ccc(F)cc21` (racemic) [SRI-012280], the “VERO Tox-SRI” value in series [1] is given as under 2.5. Further, the TB MIC - UIC in series [2] is under 0.125 mg/L. Moreover, in series [3] (setting [6]), the MIC was 0.312 mg/L (≈ 1.07 µM). Also, the LORA MIC in series [4] is 0.21 mg/L.

Take `[O-][n+]1nc(NC2CCC2)[n+]([O-])c2ccc(Cl)cc21` [SRI-012302]: in series [1], the “VERO Tox-SRI” value was determined as 1.6. This compound yielded a TB MIC - UIC in series [2] of under 0.125 mg/L. In series [3] (setting [6]), the MIC came to 0.156 mg/L (≈ 0.585 µM). Besides, the LORA MIC in series [4] was under 0.125 mg/L.

For the compound `CC(C)(C)Nc1n[n+]([O-])c2ccccc2[n+]1[O-]` [Compound 8c, 3-(tert-butylamino)benzo[e][1,2,4]triazine 1,4-dioxide], in series [1], the “Vero Tox CC50” value is 8.0 mg/L. In addition, the MIC in series [2] was 1.9 mg/L (≈ 8.11 µM); in series [3] (Table 5, read-out: MIC, H37Rv), 2.5 mg/L (≈ 10.7 µM); in series [3] (setting [5]), 1.2 mg/L (≈ 5.12 µM); in series [4] (NRP Mtb, Tables 1-4 and text), 0.82 mg/L (≈ 3.5 µM).

As for `[O-][n+]1nc(NC2CCC2)[n+]([O-])c2ccc(F)cc21` [Compound 15ad, 3-(cyclobutylamino)-7-fluorobenzo[e][1,2,4]triazine 1,4-dioxide], in series [1], the “Vero Tox CC50” value was 1.6 mg/L. Besides, the MIC in series [2] turned out to be 0.4 mg/L (≈ 1.6 µM); in series [3] (setting [5]), 0.31 mg/L (≈ 1.24 µM); in series [4], 0.88 mg/L (≈ 3.52 µM).

Regarding `[O-][n+]1nc(NC2CCC2)[n+]([O-])c2ccc(F)cc21` [SRI-012276], the “VERO Tox-SRI” value in series [1] came to 2.5. For the same compound, in series [2], the TB MIC - UIC came to 0.4 mg/L. Moreover, the minimum inhibitory concentration (MIC) in series [3] (setting [6]) was 0.312 mg/L (≈ 1.25 µM). This compound displayed an LORA MIC in series [4] of 0.88 mg/L.

`[O-][n+]1nc(N2CCOCC2)[n+]([O-])c2ccccc21` [Compound 17p, 3-morpholinobenzo[e][1,2,4]triazine 1,4-dioxide]: in series [1], the “Vero Tox CC50” value is 5.4 mg/L. In addition, the MIC in series [2] was 3.7 mg/L (≈ 14.9 µM); in series [3] (setting [5]), 2.5 to 5 mg/L (≈ 10.1 to 20.1 µM); in series [4] (NRP Mtb, Tables 1-4 and text), 19 mg/L (≈ 76.5 µM).

`Cc1cccc2c1[n+]([O-])c(NC1CCC1)n[n+]2[O-]` [Compound 15ed, 3-(cyclobutylamino)-5-methylbenzo[e][1,2,4]triazine 1,4-dioxide]: the “Vero Tox CC50” value in series [1] turned out to be 22 mg/L. Also, the MIC in series [2] was found to be 0.47 mg/L (≈ 1.91 µM); in series [3] (setting [5]), 0.31 mg/L (≈ 1.26 µM); in series [4] (NRP Mtb, Tables 1-4 and text), 0.43 mg/L (≈ 1.75 µM).

For the compound `[O-][n+]1nc(NC2CC2)[n+]([O-])c2ccc(Cl)cc21` [Compound 15bb, 7-chloro-3-(cyclopropylamino)benzo[e][1,2,4]triazine 1,4-dioxide], the “Vero Tox CC50” value in series [1] was 1.3 mg/L. The MIC in series [2] came out at 0.21 mg/L (≈ 0.831 µM); in series [3] (setting [5]), 0.62 mg/L (≈ 2.45 µM); in series [4] (NRP Mtb, Tables 1-4 and text) it was 0.22 mg/L (≈ 0.871 µM).

Regarding `COc1cc2c(cc1C)[n+]([O-])nc(NC1CCC1)[n+]2[O-]` [Compound 15gd, 3-(cyclobutylamino)-6-methoxy-7-methylbenzo[e][1,2,4]triazine 1,4-dioxide], the “Vero Tox CC50” value in series [1] was over 50 mg/L. In addition, the MIC stood at 5.1 mg/L (≈ 18.5 µM) in series [2]; 2.5 mg/L (≈ 9.05 µM) in series [3] (setting [5]); 2.9 mg/L (≈ 10.5 µM) in series [4] (NRP Mtb, Tables 1-4 and text).

As to `CCC(CC)Nc1n[n+]([O-])c2cc(F)ccc2[n+]1[O-]` [SRI-012279], the “VERO Tox-SRI” value in series [1] is 4.4. Moreover, in series [2], the TB MIC - UIC came out at 0.49 mg/L. Also, in series [3] (setting [6]), the MIC was found to be 1.25 mg/L (≈ 4.69 µM). In series [4], this compound came in with an LORA MIC of 0.71 mg/L.

On to `CC(Nc1n[n+]([O-])c2cc(F)ccc2[n+]1[O-])C(C)(C)C` (stereo not drawn) [SRI-012283], for which the “VERO Tox-SRI” value in series [1] is on record as under 2.5. Moreover, the TB MIC - UIC in series [2] came out at 0.5 mg/L. The MIC in series [3] (setting [6]) is 1.25 mg/L (≈ 4.46 µM). Also, in series [4], the LORA MIC was 0.42 mg/L.

In general, MIC refers to the smallest concentration in the dilution series that meets the test's criterion for growth inhibition.

The values are drawn from patent US9663478B2, “Benzotriazine oxides as drugs targeting Mycobacterium tuberculosis” (priority 2011, dated 2017).
